Source: patent US9198906B2, “Ketoconazole enantiomer in humans” (Cortendo AB (publ), priority 2006, dated 2015)

What was measured:
[1] = system: patients with type 2 diabetes mellitus; assay: Phase 2a trial, fructosamine (glycemic control); format: in vivo, human; details: for Fructosamine Visit 1 mean: Visit 1 (baseline, before first dose); for Fructosamine Change vs Baseline mean / Fructosamine Visit 3 mean: 14 daily doses; for Fructosamine Visit 3 mean: Visit 3 (Day 15)
Method: (§1) Five (5) dose groups were studied.
(§2) The first dose of the study drug was given on Day 1 at 2200 h. Activity markers measured on Day 1 prior to administration of the drug (“Visit 1”). The last dose of study drug was given on Day 14 at 2200 h and activity markers measured on Day 15 (“Visit 3”). Measurements of safety markers were taken on Visits 1 and 3, as well as Visit 2 (Day 8) and Visit 4 (Day 28).
Fructosamine levels were measured at baseline and after two weeks of therapy (see Table 4 and FIGS. 1 and 2). […] Fructosamine levels reflect blood glucose levels over the preceding 2-3 weeks.

[2] = target: T1, 14a-lanosterol demethylase (Rattus norvegicus, UniProt Q64654); details: compared with the other (2R,4S) enantiomer; Rotstein et al. 1992; cited from earlier work
T1 sequence (Q64654 1-503): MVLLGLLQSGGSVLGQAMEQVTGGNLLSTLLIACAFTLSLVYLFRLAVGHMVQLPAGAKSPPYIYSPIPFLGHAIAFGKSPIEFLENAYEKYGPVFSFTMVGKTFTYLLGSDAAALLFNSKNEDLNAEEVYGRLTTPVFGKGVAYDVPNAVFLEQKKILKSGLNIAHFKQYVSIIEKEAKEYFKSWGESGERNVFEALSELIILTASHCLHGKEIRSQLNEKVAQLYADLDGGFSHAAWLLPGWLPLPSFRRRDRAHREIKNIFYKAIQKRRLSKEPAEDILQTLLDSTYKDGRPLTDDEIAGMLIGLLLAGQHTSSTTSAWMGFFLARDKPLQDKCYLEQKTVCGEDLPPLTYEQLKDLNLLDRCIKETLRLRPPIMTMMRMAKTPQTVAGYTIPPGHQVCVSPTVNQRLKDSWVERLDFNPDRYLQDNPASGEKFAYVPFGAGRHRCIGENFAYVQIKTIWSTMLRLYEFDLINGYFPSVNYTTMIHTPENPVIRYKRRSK

[3] = plasma; Beagle dogs, racemic ketoconazole 30 mg/dog intravenous bolus
Method: The pharmacokinetics of each of the ketoconazole enantiomers was studied following intravenous administration of racemic ketoconazole. Racemic ketoconazolewas dissolved in ethanol to 60 mg/ml. Each of three Beagle dogs was administered 0.5 ml bolus (30 mg/dog) intravenously.
Blood was collected from each dog prior to dosing (“0 min”) and at 2, 5, 10, 15, 30 min, and 1, 2, 4, 6, 8, and 24 hrs post-dosing. At each timepoint, blood (0.3 mL/sample) was collected and placed into labeled Microtainer® tubes with heparin as the anti-coagulant. The heparinized blood was centrifuged, and the supernatant pipetted off into another set of labeled Eppendorf® tubes. The derived plasma samples were analyzed for each of the two ketoconazole enantiomers (2S,4R and 2R,4S) and pharmacokinetic parameters determined for each of the enantiomers.

[4] = system: patients with type 2 diabetes mellitus; assay: Phase 2a trial, total cholesterol; format: in vivo, human; details: for Total cholesterol Visit 1 mean: Visit 1 (baseline, before first dose); for Total cholesterol Change mean / Total cholesterol Mean % change / Total cholesterol Visit 3 mean: 14 daily doses; for Total cholesterol Visit 3 mean: Visit 3 (Day 15)
Method: as §1, §2

[5] = system: patients with type 2 diabetes mellitus; assay: Phase 2a trial, C-reactive protein (marker of inflammation); format: in vivo, human; details: for C-Reactive Protein (CRP) Visit 1 mean: Visit 1 (baseline, before first dose); for C-Reactive Protein (CRP) Visit 3 mean: Visit 3 (Day 15)
Method: as §1, §2

[6] = system: patients with type 2 diabetes mellitus; assay: Phase 2a trial, continuous blood pressure monitoring; format: in vivo, human; details: Visits 1 and 3, 14 daily doses
Method: as §1
Continuous blood pressure monitoring was performed during Visits 1 and 3.

[7] = system: patients with type 2 diabetes mellitus; assay: Phase 2a trial, HbA1c (glycemic control); format: in vivo, human; details: for Visit 1 HbA1c mean: Visit 1 (Day 1, before first dose, baseline); for HbA1c Change vs Baseline mean / Visit 3 HbA1c mean: 14 daily doses; for Visit 3 HbA1c mean: Visit 3 (Day 15)
Method: as §1, §2
This test measure levels of glycated hemoglobin and reflects the average blood glucose level for a subject over the preceding 3 months (approximately). Elevated levels are common in diabetics. Lowering the hemoglobin A1c number can delay or prevent the development of serious eye, kidney, and nerve disease in individuals with diabetes.

[8] = system: patients with type 2 diabetes mellitus; assay: Phase 2a trial, fasting glucose; details: two weeks of treatment
From the text: The secondary objective was to determine the pharmacokinetic (PK) profile in plasma of the 2S,4R enantiomer after a single dosing and after fourteen daily doses. In addition the pharmacodynamic activity of fourteen daily doses of the 2S,4R enantiomer, as reflected by changes in blood pressure, total and LDL cholesterol, CRP, plasma and salivary cortisol, cortisol binding globulin, measures of glycemic control (fructosamine, HbA1c and fasting blood glucose levels).
Five (5) dose groups were studied. The dose groups are as follows (N=subjects who completed the study):

[9] = system: patients with type 2 diabetes mellitus; assay: Phase 2a trial, LDL cholesterol; format: in vivo, human; details: for LDL cholesterol Visit 1 mean: Visit 1 (baseline, before first dose); for LDL cholesterol Mean % change / LDL cholesterol change mean / LDL cholesterol Visit 3 mean: 14 daily doses; for LDL cholesterol Visit 3 mean: Visit 3 (Day 15)
Method: as §1, §2

[10] = system: patients with type 2 diabetes mellitus; assay: Phase 2a trial, liver function tests (AST/ALT/AP)
Method: as §2

[11] = Subject 02-002, 200 mg DIO-902, Screening Visit
[12] = Subject 02-002, 200 mg DIO-902, Visit 1 (pre-1st dose)
[13] = Subject 02-002, 200 mg DIO-902, Visit 2
[14] = Subject 02-002, 200 mg DIO-902, Visit 3 (last dose)
[15] = Subject 04-004, 400 mg DIO-902, Screening Visit
[16] = Subject 04-004, 400 mg DIO-902, Visit 1 (pre-1st dose)
[17] = Subject 04-004, 400 mg DIO-902, Visit 2
[18] = Subject 04-004, 400 mg DIO-902, Visit 3 (last dose)
[19] = Subject 04-010, 400 mg DIO-902, Screening Visit
[20] = Subject 04-010, 400 mg DIO-902, Visit 1 (pre-1st dose)
[21] = Subject 04-010, 400 mg DIO-902, Visit 2
[22] = Subject 04-010, 400 mg DIO-902, Visit 3 (last dose)

## 2S,4R ketoconazole [DIO-902]
[1]; 200 mg po QD group
  Fructosamine Visit 1 mean: 262 µmol/L
[1]; 200 mg po QD
  Fructosamine Change vs Baseline mean: -12.20 µmol/L
  Fructosamine Visit 3 mean: 249.80 µmol/L
[1]; 400 mg po QD group
  Fructosamine Visit 1 mean: 271.00 µmol/L
[1]; 400 mg po QD
  Fructosamine Change vs Baseline mean: -8.33 µmol/L
  Fructosamine Visit 3 mean: 262.67 µmol/L
[1]; 600 mg po QD group
  Fructosamine Visit 1 mean: 276.33 µmol/L
[1]; 600 mg po QD
  Fructosamine Change vs Baseline mean: -29.33 µmol/L
  Fructosamine Visit 3 mean: 247.00 µmol/L
[1]; administration for 14 days
  effect on fructosamine: trends toward a reduction
[2]
  activity against 14a-lanosterol demethylase: more active
[3]
  clearance: 8.08 mL/min/kg
  terminal half life: 1.397 h
[4]; 200 mg po QD group
  Total cholesterol Visit 1 mean: 227.20 mg/dL
[4]; 200 mg po QD
  Total cholesterol Change mean: -26.10 mg/dL
  Total cholesterol Mean % change: −11.66%
  Total cholesterol Visit 3 mean: 202.45 mg/dL
[4]; 400 mg po QD group
  Total cholesterol Visit 1 mean: 224.50 mg/dL
[4]; 400 mg po QD
  Total cholesterol Change mean: -34.00 mg/dL
  Total cholesterol Mean % change: −15.35%
  Total cholesterol Visit 3 mean: 190.50 mg/dL
[4]; 600 mg po QD group
  Total cholesterol Visit 1 mean: 195.33 mg/dL
[4]; 600 mg po QD
  Total cholesterol Change mean: -48.75 mg/dL
  Total cholesterol Mean % change: −29.97%
  Total cholesterol Visit 3 mean: 130.33 mg/dL
[4]; two-week administration
  effect on total cholesterol: Statistically significant, dose dependent decreases
[5]; 200 mg po QD group
  C-Reactive Protein (CRP) Visit 1 mean: 6.91 mg/L
[5]; 200 mg po QD, 14 daily doses
  CRP Mean % change vs baseline: −19.8%
  C-Reactive Protein (CRP) Visit 3 mean: 4.78 mg/L
[5]; 400 mg po QD group
  C-Reactive Protein (CRP) Visit 1 mean: 4.02 mg/L
[5]; 400 mg po QD, 14 daily doses
  CRP Mean % change vs baseline: −27.35%
  C-Reactive Protein (CRP) Visit 3 mean: 2.95 mg/L
[5]; 600 mg po QD group
  C-Reactive Protein (CRP) Visit 1 mean: 8.35 mg/L
[5]; 600 mg po QD, 14 daily doses
  CRP Mean % change vs baseline: −48.64%
  C-Reactive Protein (CRP) Visit 3 mean: 5.05 mg/L
[5]; 14 daily doses
  effect on CRP: dose-dependent decrease
[6]
  effect on blood pressure readings: no reductions
[7]; 200 mg po QD group
  Visit 1 HbA1c mean: 8.18%
[7]; 200 mg po QD
  HbA1c Change vs Baseline mean: −0.32%
  Visit 3 HbA1c mean: 7.86%
[7]; 400 mg po QD group
  Visit 1 HbA1c mean: 7.88%
[7]; 400 mg po QD
  HbA1c Change vs Baseline mean: −0.18%
  Visit 3 HbA1c mean: 7.70%
[7]; 600 mg po QD group
  Visit 1 HbA1c mean: 9.10%
[7]; 600 mg po QD
  HbA1c Change vs Baseline mean: −0.47%
  Visit 3 HbA1c mean: 8.63%
[7]; administration for 14 days
  effect on HbA1c: trends toward a reduction
[8]
  Reductions in fasting glucose levels: up to 15 mg/dL
[9]; 200 mg po QD group
  LDL cholesterol Visit 1 mean: 141.60 mg/dL
[9]; 200 mg po QD
  LDL cholesterol Mean % change: −11.39%
  LDL cholesterol change mean: -17.20 mg/dL
  LDL cholesterol Visit 3 mean: 124.40 mg/dL
[9]; 400 mg po QD group
  LDL cholesterol Visit 1 mean: 133.33 mg/dL
[9]; 400 mg po QD
  LDL cholesterol Mean % change: −27.44%
  LDL cholesterol change mean: -35.50 mg/dL
  LDL cholesterol Visit 3 mean: 97.83 mg/dL
[9]; 600 mg po QD group
  LDL cholesterol Visit 1 mean: 125.67 mg/dL
[9]; 600 mg po QD
  LDL cholesterol Mean % change: −42.14%
  LDL cholesterol change mean: -41.25 mg/dL
  LDL cholesterol Visit 3 mean: 70.67 mg/dL
[9]; two-week administration
  effect on LDL-C: Statistically significant, dose dependent decreases
[10]; 14 daily doses
  evidence of hepatotoxicity: not observed
[10]; [11]
  ALT: 30 u/L
  AP: 110 u/L
  AST: 58 u/L
[10]; [12]
  ALT: 22 u/L
  AP: 100 u/L
  AST: 34 u/L
[10]; [13]
  ALT: 21 u/L
  AP: 103 u/L
  AST: 30 u/L
[10]; [14]
  ALT: 19 u/L
  AP: 97 u/L
  AST: 35 u/L
[10]; [15]
  ALT: 25 u/L
  AP: 132 u/L
  AST: 48 u/L
[10]; [16]
  ALT: 25 u/L
  AP: 108 u/L
  AST: 49 u/L
[10]; [17]
  ALT: 28 u/L
  AP: 125 u/L
  AST: 49 u/L
[10]; [18]
  ALT: 25 u/L
  AP: 130 u/L
  AST: 46 u/L
[10]; [19]
  ALT: 27 u/L
  AP: 73 u/L
  AST: 49 u/L
[10]; [20]
  ALT: 24 u/L
  AP: 60 u/L
  AST: 48 u/L
[10]; [21]
  ALT: 14 u/L
  AP: 82 u/L
  AST: 40 u/L
[10]; [22]
  ALT: 19 u/L
  AP: 64 u/L
  AST: 38 u/L
[10]; two patients
  liver function test values outside the normal range at baseline (hepato-protection, words): normalized

## CC(=O)N1CCN(c2ccc(OC[C@H]3CO[C@](Cn4ccnc4)(c4ccc(Cl)cc4Cl)O3)cc2)CC1 (single isomer, unassigned) [2R,4S ketoconazole enantiomer, reference compound]
[3]
  clearance: 24.03 mL/min/kg
  terminal half life: 0.93 h
